Measured values: paper PMC4551467 (EBioMedicine, 2015)
“Also recorded” adds a separate entry of the source.

What was measured:
[1] = test system: MRC-5 human lung normal cells; format: cell-based; conditions: read-out: IC50 (agent concentration to kill 50% of untreated cells), MRC-5
[2] = test system: MRC-5 human normal cells; format: cell-based
[3] = test system: NIH:OVCAR-3 cisplatin-resistant human ovarian cancer cells; test: cells; format: cell-based
[4] = test system: human normal cells (GM05757 and MRC-5); format: cell-based; conditions: read-out: IC50 toward human normal cells
[5] = mouse, in vivo, cited from earlier work
[6] = test system: HeLa, ME-180, MDA-MB-231, A549 and NIH:OVCAR-3 cancer cells; test: cells; format: cell-based; conditions: Homo sapiens, 72 h, read-out: IC50 against cancer cells
[7] = mouse, in vivo
[8] = test system: GM05757 human normal cells; format: cell-based
[9] = test system: A549 lung cancer xenograft tumor tissue; design: species or system SCID mice; conditions: mouse, in vivo
[10] = mouse, in vivo; remark: listed apart in the source
[11] = test system: NIH:OVCAR-3 ovarian cancer xenograft; design: species or system SCID mice; conditions: mouse, in vivo

Compound: cisplatin
- IC50 [1]: ~6 µM
- activation of caspase-3 and -7 in MRC-5 normal cells [2]: significant activation
- NIH:OVCAR-3 cancer cells surviving high-dose treatment [3]: about 12%
- IC50 [4]: ≤ 10 µM
- mean body weight compared to vehicle control ([5]; 2.3 mg/kg): significant decrease
- levels of blood urea nitrogen (BUN) ([5]; 15 mg/kg): significantly elevated
- mice that died within 5 days ([5]; 15 mg/kg): Half

Compound: Nc1cc(Br)c(Br)cc1N [FMD-2Br-DAB, 4,5-dibromo-1,2-phenylenediamine]
- IC50 [6]: 15 to 75 µM
- acute toxicity in mice (hepatotoxicity, nephrotoxicity, electrolytes) [7]: no acute toxicity
- increase of the GSH level in normal cells [8]: about 40%
- apoptosis in tumor tissue (TUNEL) vs untreated group [9]: significant enhancement in apoptosis
- caspase activation (apoptosis) in normal cells [2]: negligible caspase activation
- IC50 ([3]; Homo sapiens, OVCAR-3, 72 h, read-out: IC50, NIH:OVCAR-3): 175 µM
- overall physical toxicity in mice [10]: no overall physical toxicity

Compound: Nc1cc(I)c(I)cc1N [FMD-2I-DAB, 4,5-diiodo-1,2-phenylenediamine]
- IC50 [6]: 15 to 75 µM
- acute toxicity in mice (hepatotoxicity, nephrotoxicity, electrolytes) [7]: no acute toxicity
- cisplatin-resistant ovarian (NIH:OVCAR-3) tumor growth vs control [11]: effectively suppressed
- apoptosis in tumor tissue (TUNEL) vs untreated group [9]: significant enhancement in apoptosis; also recorded: most effective inducer of apoptosis
- caspase activation (apoptosis) in normal cells [2]: negligible caspase activation
- overall physical toxicity in mice [10]: no overall physical toxicity
